In patent US7473790B2 (Pfizer Inc., priority 2003, dated 2009):

Target: T1, HCV polymerase (Hepatitis C virus genotype 1b, UniProt P26663)
T1 construct: 2.5 pmoles (0.15 μg) HCV polymerase protein in a final volume of 75 μL
Assay: HCV polymerase primer/template-directed transcription assay (32P-GTP incorporation, filter binding)
Format: biochemical
Details: recombinant HCV polymerase; 30 minutes at 30° C.; concentration giving 50% inhibition of polymerase-directed transcription; read-out: IC50
Outline: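 Recombinant genotype 1b polymerase (30 nM) extended biotin-dG12 primer on poly(rC)300 template with 1 μM GTP plus α-32P-GTP, pH 7.2, 10 mM MgCl2, 30 min at 30° C, 1% DMSO final. Products captured on DE filters and counted. IC50 fitted from triplicate cpm, with a tight-binding correction applied below 200 nM.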

T1 sequence (P26663 2420-3010): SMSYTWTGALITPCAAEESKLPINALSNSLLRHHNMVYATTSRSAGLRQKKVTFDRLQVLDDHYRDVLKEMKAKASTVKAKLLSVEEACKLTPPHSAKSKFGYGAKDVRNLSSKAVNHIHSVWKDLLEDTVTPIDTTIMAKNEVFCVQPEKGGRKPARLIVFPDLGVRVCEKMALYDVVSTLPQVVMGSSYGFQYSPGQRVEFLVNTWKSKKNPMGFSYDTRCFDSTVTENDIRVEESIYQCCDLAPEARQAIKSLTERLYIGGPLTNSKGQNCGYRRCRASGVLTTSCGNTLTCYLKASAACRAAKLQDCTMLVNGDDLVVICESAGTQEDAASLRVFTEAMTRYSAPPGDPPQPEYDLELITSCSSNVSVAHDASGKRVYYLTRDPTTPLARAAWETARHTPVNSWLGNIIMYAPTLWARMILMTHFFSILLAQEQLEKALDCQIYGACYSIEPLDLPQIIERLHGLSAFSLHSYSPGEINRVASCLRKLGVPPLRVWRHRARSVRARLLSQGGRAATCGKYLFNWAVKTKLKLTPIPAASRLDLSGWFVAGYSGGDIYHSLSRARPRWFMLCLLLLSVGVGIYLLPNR

CCc1ccc(O)c(CCC2(C3CCCC3)CC(O)=C(Cc3nc4ncc(Cl)cn4n3)C(=O)O2)c1 (centres unmarked) [A(170), 3-(6-Chloro-[1,2,4]triazolo[1,5-a]pyrimidin-2-ylmethyl)-6-cyclopentyl-6-[2-(5-ethyl-2-hydroxy-phenyl)-ethyl]-4-hydroxy-5,6-dihydro-pyran-2-one]
IC50: 10 nM

CCc1ccc(O)c(CCC2(C3CCCC3)CC(O)=C(Cc3nc4ncc(C)cn4n3)C(=O)O2)c1 (centres unmarked) [A(173), 6-Cyclopentyl-6-[2-(5-ethyl-2-hydroxy-phenyl)-ethyl]-4-hydroxy-3-(6-methyl-[1,2,4]triazolo[1,5-a]pyrimidin-2-ylmethyl)-5,6-dihydro-pyran-2-one]
IC50: 4 nM

CCc1ccc(O)c(CCC2(C3CCCC3)CC(O)=C(Cc3nc4ncccn4n3)C(=O)O2)c1 (centres unmarked) [A(176), 6-Cyclopentyl-6-[2-(5-ethyl-2-hydroxy-phenyl)-ethyl]-4-hydroxy-3-[1,2,4]triazolo[1,5-a]pyrimidin-2-ylmethyl-5,6-dihydro-pyran-2-one]
IC50: 6 nM

CCc1ccc(OCCOC)c(CCC2(C3CCCC3)CC(O)=C(Cc3nc4nc(C)cc(C)n4n3)C(=O)O2)c1 (centres unmarked) [A(177), 6-Cyclopentyl-3-(5,7-dimethyl-[1,2,4]triazolo[1,5-a]pyrimidin-2-ylmethyl)-6-{2-[5-ethyl-2-(2-methoxy-ethoxy)-phenyl]-ethyl}-4-hydroxy-5,6-dihydro-pyran-2-one]
IC50: 14 nM

CCc1ccc(OCCOC)c(CCC2(C3CCCC3)CC(=O)CC(=O)O2)c1 (centres unmarked) [A(178), 6-Cyclopentyl-6-{2-[5-ethyl-2-(2-methoxy-ethoxy)-phenyl]-ethyl}-dihydro-pyran-2,4-dione]
IC50: 1300 nM

CCc1ccc(OCCOC)c(CCC2(C3CCCC3)CC(O)=C(Cc3nc4ncc(C)cn4n3)C(=O)O2)c1 (centres unmarked) [A(179), 6-Cyclopentyl-6-{2-[5-ethyl-2-(2-methoxy-ethoxy)-phenyl]-ethyl}-4-hydroxy-3-(6-methyl-[1,2,4]triazolo[1,5-a]pyrimidin-2-ylmethyl)-5,6-dihydro-pyran-2-one]
IC50: 5 nM

CCc1cc(CCC2(C3CCCC3)CC(O)=C(Cc3nc4nc(C)cc(C)n4n3)C(=O)O2)c2c(c1O)CCO2 (centres unmarked) [A(180), 6-Cyclopentyl-3-(5,7-dimethyl-[1,2,4]triazolo[1,5-a]pyrimidin-2-ylmethyl)-6-[2-(5-ethyl-4-hydroxy-2,3-dihydro-benzofuran-7-yl)-ethyl]-4-hydroxy-5,6-dihydro-pyran-2-one]
IC50: 10 nM

CCc1cc(CCC2(C3CCCC3)CC(=O)CC(=O)O2)c2c(c1O)CCO2 (centres unmarked) [A(181), 6-Cyclopentyl-6-[2-(5-ethyl-4-hydroxy-2,3-dihydro-benzofuran-7-yl)-ethyl]-dihydro-pyran-2,4-dione]
IC50: 600 nM

CCc1cc(CCC2(C3CCCC3)CC(O)=C(Cc3nc4ncc(C)cn4n3)C(=O)O2)c2c(c1O)CCO2 (centres unmarked) [A(182), 6-Cyclopentyl-6-[2-(5-ethyl-4-hydroxy-2,3-dihydro-benzofuran-7-yl)-ethyl]-4-hydroxy-3-(6-methyl-[1,2,4]triazolo[1,5-a]pyrimidin-2-ylmethyl)-5,6-dihydro-pyran-2-one]
IC50: 4 nM

CCc1cc(CCC2(C3CCCC3)CC(O)=C(Cc3nc4nc(C)cc(C)n4n3)C(=O)O2)ccc1OCCOC (centres unmarked) [A(183), 6-Cyclopentyl-3-(5,7-dimethyl-[1,2,4]triazolo[1,5-a]pyrimidin-2-ylmethyl)-6-{2-[3-ethyl-4-(2-methoxy-ethoxy)-phenyl]-ethyl}-4-hydroxy-5,6-dihydro-pyran-2-one]
IC50: 7 nM

CCc1cc(CCC2(C3CCCC3)CC(=O)CC(=O)O2)ccc1OCCOC (centres unmarked) [A(184), 6-Cyclopentyl-6-{2-[3-ethyl-4-(2-methoxy-ethoxy)-phenyl]-ethyl}-dihydro-pyran-2,4-dione]
IC50: 520 nM

CCc1cc(CCC2(C3CCCC3)CC(O)=C(Cc3nc4ncc(C)cn4n3)C(=O)O2)ccc1OCCOC (centres unmarked) [A(185), 6-Cyclopentyl-6-{2-[3-ethyl-4-(2-methoxy-ethoxy)-phenyl]-ethyl}-4-hydroxy-3-(6-methyl-[1,2,4]triazolo[1,5-a]pyrimidin-2-ylmethyl)-5,6-dihydro-pyran-2-one]
IC50: 8 nM

CCc1cc(O)cc(CCC2(C3CCCC3)CC(O)=C(Cc3nc4nc(C)cc(C)n4n3)C(=O)O2)c1 (centres unmarked) [A(186), 6-Cyclopentyl-3-(5,7-dimethyl-[1,2,4]triazolo[1,5-a]pyrimidin-2-ylmethyl)-6-[2-(3-ethyl-5-hydroxy-phenyl)-ethyl]-4-hydroxy-5,6-dihydro-pyran-2-one]
IC50: 40 nM

CCc1cc(CCC2(C3CCCC3)CC(O)=C(Cc3nc4nc(C)cc(C)n4n3)C(=O)O2)c(O)cc1OC (centres unmarked) [A(187), 6-Cyclopentyl-3-(5,7-dimethyl-[1,2,4]triazolo[1,5-a]pyrimidin-2-ylmethyl)-6-[2-(5-ethyl-2-hydroxy-4-methoxy-phenyl)-ethyl]-4-hydroxy-5,6-dihydro-pyran-2-one]
IC50: 4 nM

Cc1cc(C)n2nc(CC3=C(O)CC(CCc4ccc(C5(C#N)CCCC5)c(F)c4)(C4CCCC4)OC3=O)nc2n1 (centres unmarked) [A(188), 1-(4-{2-[2-Cyclopentyl-5-(5,7-dimethyl-[1,2,4]triazolo[1,5-a]pyrimidin-2-ylmethyl)-4-hydroxy-6-oxo-3,6-dihydro-2H-pyran-2-yl]-ethyl}-2-fluoro-phenyl)-cyclopentanecarbonitrile]
IC50: 6 nM

N#CC1(c2ccc(CCC3(C4CCCC4)CC(=O)CC(=O)O3)cc2F)CCCC1 (centres unmarked) [A(189), 1-{4-[2-(2-Cyclopentyl-4,6-dioxo-tetrahydro-pyran-2-yl)-ethyl]-2-fluoro-phenyl}-cyclopentanecarbonitrile]
IC50: 2900 nM

Cc1cnc2nc(CC3=C(O)CC(CCc4ccc(C5(C#N)CCCC5)c(F)c4)(C4CCCC4)OC3=O)nn2c1 (centres unmarked) [A(190), 1-(4-{2-[2-Cyclopentyl-4-hydroxy-5-(6-methyl-[1,2,4]triazolo[1,5-a]pyrimidin-2-ylmethyl)-6-oxo-3,6-dihydro-2H-pyran-2-yl]-ethyl}-2-fluoro-phenyl)-cyclopentanecarbonitrile]
IC50: 11 nM

N#CC1(c2ccc(CCC3(C4CCCC4)CC(O)=C(Cc4nc5ncc(Cl)cn5n4)C(=O)O3)cc2F)CCCC1 (centres unmarked) [A(191), 1-(4-{2-[5-(6-Chloro-[1,2,4]triazolo[1,5-a]pyrimidin-2-ylmethyl)-2-cyclopentyl-4-hydroxy-6-oxo-3,6-dihydro-2H-pyran-2-yl]-ethyl}-2-fluoro-phenyl)-cyclopentanecarbonitrile]
IC50: 17 nM

COCc1cc(CCC2(C3CCCC3)CC(O)=C(Cc3nc4nc(C)cc(C)n4n3)C(=O)O2)ccc1O (centres unmarked) [A(192), 6-Cyclopentyl-3-(5,7-dimethyl-[1,2,4]triazolo[1,5-a]pyrimidin-2-ylmethyl)-4-hydroxy-6-[2-(4-hydroxy-3-methoxymethyl-phenyl)-ethyl]-5,6-dihydro-pyran-2-one]
IC50: 28 nM

Cc1cc(C)n2nc(CC3=C(O)CC(CCc4ccc(O)c(CO)c4)(C4CCCC4)OC3=O)nc2n1 (centres unmarked) [A(193), 6-Cyclopentyl-3-(5,7-dimethyl-[1,2,4]triazolo[1,5-a]pyrimidin-2-ylmethyl)-4-hydroxy-6-[2-(4-hydroxy-3-hydroxymethyl-phenyl)-ethyl]-5,6-dihydro-pyran-2-one]
IC50: 98 nM

COCc1cc(CCC2(C3CCCC3)CC(=O)CC(=O)O2)ccc1O (centres unmarked) [A(194), 6-Cyclopentyl-6-[2-(4-hydroxy-3-methoxymethyl-phenyl)-ethyl]-dihydro-pyran-2,4-dione]
IC50: 6900 nM

O=C1CC(=O)OC(CCc2ccc(O)c(CO)c2)(C2CCCC2)C1 (centres unmarked) [A(195), 6-Cyclopentyl-6-[2-(4-hydroxy-3-hydroxymethyl-phenyl)-ethyl]-dihydro-pyran-2,4-dione]
IC50: 11000 nM

CC(C)(C#N)c1ccc(CCC2(C3CCCC3)CC(O)=C(Cc3nc4ncc(Cl)cn4n3)C(=O)O2)cc1Cl (centres unmarked) [A(198), 2-(2-Chloro-4-{2-[5-(6-chloro-[1,2,4]triazolo[1,5-a]pyrimidin-2-ylmethyl)-2-cyclopentyl-4-hydroxy-6-oxo-3,6-dihydro-2H-pyran-2-yl]-ethyl}-phenyl)-2-methyl-propionitrile]
IC50: 16 nM

Cc1cnc2nc(CC3=C(O)CC(CCc4ccc(C(C)(C)C#N)c(Cl)c4)(C4CCCC4)OC3=O)nn2c1 (centres unmarked) [A(199), 2-(2-Chloro-4-{2-[2-cyclopentyl-4-hydroxy-5-(6-methyl-[1,2,4]triazolo[1,5-a]pyrimidin-2-ylmethyl)-6-oxo-3,6-dihydro-2H-pyran-2-yl]-ethyl}-phenyl)-2-methyl-propionitrile]
IC50: 10 nM

CCc1cc(CCC2(C3CCCC3)CC(O)=C(Cc3nc4ncccn4n3)C(=O)O2)c(OC)cc1O (centres unmarked) [A(207), 6-cyclopentyl-6-[2-(5-ethyl-4-hydroxy-2-methoxyphenyl)ethyl]-4-hydroxy-3-([1,2,4]triazolo[1,5-a]pyrimidin-2-ylmethyl)-5,6-dihydro-2H-pyran-2-one]
IC50: 4 nM

CC(C)(O)c1ccc(CCC2(C3CCCC3)CC(O)=C(Cc3nc4ncc(Cl)cn4n3)C(=O)O2)cc1F (centres unmarked) [A(214), 3-[(6-chloro[1,2,4]triazolo[1,5-a]pyrimidin-2-yl)methyl]-6-cyclopentyl-6-{2-[3-fluoro-4-(1-hydroxy-1-methylethyl)phenyl]ethyl}-4-hydroxy-5,6-dihydro-2H-pyran-2-one]
IC50: 38 nM

CC(C)(O)c1ccc(CCC2(C3CCCC3)CC(=O)CC(=O)O2)cc1F (centres unmarked) [A(215), 6-cyclopentyl-6-{2-[3-fluoro-4-(1-hydroxy-1-methylethyl)phenyl]ethyl}dihydro-2H-pyran-2,4(3H)-dione]
IC50: 4900 nM

Cc1cnc2nc(CC3=C(O)CC(CCc4ccc(C(C)(C)O)c(F)c4)(C4CCCC4)OC3=O)nn2c1 (centres unmarked) [A(216)]
IC50: 45 nM

Cc1cc(C)n2nc(CC3=C(O)CC(CCc4ccc(C(C)(C)O)c(F)c4)(C4CCCC4)OC3=O)nc2n1 (centres unmarked) [A(217), 6-cyclopentyl-3-[(5,7-dimethyl[1,2,4]triazolo[1,5-a]pyrimidin-2-yl)methyl]-6-{2-[3-fluoro-4-(1-hydroxy-1-methylethyl)phenyl]ethyl}-4-hydroxy-5,6-dihydro-2H-pyran-2-one]
IC50: 14 nM
